Data taken from US9120770B2, “Substituted pyridine and pyrazine compounds as PDE4 inhibitors” (DART NEUROSCIENCE (CAYMAN) LTD., priority 2013, dated 2015).

Molecular target: PDE4D3 (Homo sapiens, UniProt Q08499)
Sequence (Q08499 1-673 isoform Q08499-2): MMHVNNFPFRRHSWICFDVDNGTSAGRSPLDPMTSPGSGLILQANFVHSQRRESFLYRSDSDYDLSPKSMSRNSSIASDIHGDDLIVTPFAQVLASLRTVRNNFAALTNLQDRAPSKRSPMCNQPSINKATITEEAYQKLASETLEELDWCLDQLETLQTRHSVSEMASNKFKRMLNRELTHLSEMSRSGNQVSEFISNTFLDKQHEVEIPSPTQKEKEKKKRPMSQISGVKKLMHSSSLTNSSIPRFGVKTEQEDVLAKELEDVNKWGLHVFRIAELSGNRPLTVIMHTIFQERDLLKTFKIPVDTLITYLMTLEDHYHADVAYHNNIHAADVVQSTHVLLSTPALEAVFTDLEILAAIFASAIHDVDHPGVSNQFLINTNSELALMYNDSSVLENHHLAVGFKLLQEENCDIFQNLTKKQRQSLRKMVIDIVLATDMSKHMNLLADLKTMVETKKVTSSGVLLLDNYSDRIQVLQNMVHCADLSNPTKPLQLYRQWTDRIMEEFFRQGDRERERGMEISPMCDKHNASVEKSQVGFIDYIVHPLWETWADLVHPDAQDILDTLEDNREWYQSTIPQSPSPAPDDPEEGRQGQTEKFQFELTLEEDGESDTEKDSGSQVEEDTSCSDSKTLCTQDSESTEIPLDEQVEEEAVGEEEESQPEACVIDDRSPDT

EC50	SMILES
< 100 nM	COc1ncc(Cn2cccn2)cc1-c1cccc(Cl)c1 [Example 145, 3-(3-Chlorophenyl)-2-methoxy-5-(1H-pyrazol-1-ylmethyl)pyridine]
100 to 1000 nM	COc1ncc(Cc2ccc(C(N)=O)cc2)nc1-c1cccc(Cl)c1 [Example 113, 4-{[6-(3-Chlorophenyl)-5-methoxypyrazin-2-yl]methyl}benzamide]
100 to 1000 nM	COc1ncc(Cc2cccnc2)cc1-c1cccc(Cl)c1 [Example 64, 3-(3-Chlorophenyl)-2-methoxy-5-(pyridin-3-ylmethyl)pyridine]
100 to 1000 nM	COc1ncc(Cc2ccc(C(=O)O)cc2)cc1-c1cccc(Cl)c1 [Example 21, 4-{[5-(3-Chlorophenyl)-6-methoxypyridin-3-yl]methyl}benzoic acid]
< 100 nM	COc1ncc(Cn2cncn2)cc1-c1cccc(C(F)F)c1 [Example 144, 3-[3-(Difluoromethyl)phenyl]-2-methoxy-5-(1H-1,2,4-triazol-1-ylmethyl)pyridine]
100 to 1000 nM	NC(=O)c1ccc(Cc2cnc(OC(F)F)c(-c3cccc(Cl)c3)c2)cn1 [Example 114, 5-{[5-(3-Chlorophenyl)-6-(difluoromethoxy)pyridin-3-yl]methyl}pyridine-2-carboxamide]
> 10000 nM	COc1ncc(Cc2cnc(C#N)nc2)nc1-c1cccc(Cl)c1 [Example 22, 5-{[6-(3-Chlorophenyl)-5-methoxypyrazin-2-yl]methyl}pyrimidine-2-carbonitrile]
100 to 1000 nM	COc1ncc(Cn2cncn2)cc1-c1cccc(C#N)c1 [Example 136, 3-[2-Methoxy-5-(1H-1,2,4-triazol-1-ylmethyl)pyridin-3-yl]benzonitrile]
< 100 nM	COc1ncc(Cc2sc(C)nc2C)cc1-c1cccc(Cl)c1 [Example 66, 3-(3-Chlorophenyl)-5-[(dimethyl-1,3-thiazol-5-yl)methyl]-2-methoxypyridine]
1000 to 10000 nM	COc1ncc(Cc2cnc(C(=O)O)nc2)cc1-c1cccc(Cl)c1 [Example 23, 5-{[5-(3-Chlorophenyl)-6-methoxypyridin-3-yl]methyl}pyrimidine-2-carboxylic acid]
< 100 nM	COc1ncc(Cc2cnc(OC(F)F)c(-c3cccc(Cl)c3)c2)cn1 [Example 92, 5-{[5-(3-Chlorophenyl)-6-(difluoromethoxy)pyridin-3-yl]methyl}-2-methoxypyrimidine]
< 100 nM	CCOc1ncc(Cc2cnc(C(N)=O)nc2)nc1-c1cccc(OC(F)F)c1 [Example 13, 5-({6-[3-(Difluoromethoxy)phenyl]-5-ethoxypyrazin-2-yl}methyl)pyrimidine-2-carboxamide]
100 to 1000 nM	FC(F)Oc1ncc(Cc2ccc(OCC3CC3)nc2)cc1-c1cccc(Cl)c1 [Example 102, 3-(3-Chlorophenyl)-5-{[6-(cyclopropylmethoxy)pyridin-3-yl]methyl}-2-(difluoromethoxy)pyridine]
1000 to 10000 nM	CNC(c1ccc(F)cc1)c1cnc(OC)c(-c2cccc(Cl)c2)c1 (centres unmarked) [Example 17, {[5-(3-Chlorophenyl)-6-methoxypyridin-3-yl](4-fluorophenyl)methyl}(methyl)amine]
> 10000 nM	COc1ncc(Cn2cncn2)cc1-c1cc(C)ccn1 [Example 10, 2-Methoxy-3-(4-methylpyridin-2-yl)-5-(1H-1,2,4-triazol-1-ylmethyl)pyridine]
1000 to 10000 nM	COc1ncc(Cn2ccccc2=O)cc1-c1cccc(Cl)c1 [Example 177, 1-{[5-(3-Chlorophenyl)-6-methoxypyridin-3-yl]methyl}-1,2-dihydropyridin-2-one]
< 100 nM	CCOc1cccc(-c2cc(Cn3cnc(CO)n3)cnc2OC(F)F)c1 [Example 204, (1-{[6-(Difluoromethoxy)-5-(3-ethoxyphenyl)pyridin-3-yl]methyl}-1H-1,2,4-triazol-3-yl)methanol]
100 to 1000 nM	COc1ncc(Cn2cnc(CO)n2)nc1-c1cccc(OC(F)F)c1 [Example 211, [1-({6-[3-(Difluoromethoxy)phenyl]-5-methoxypyrazin-2-yl}-methyl)-1H-1,2,4-triazol-3-yl]methanol]
< 100 nM	COc1ncc(Cn2cnc(N)n2)cc1-c1cccc(OC(F)F)c1 [Example 217, 1-({5-[3-(Difluoromethoxy)phenyl]-6-methoxypyridin-3-yl}methyl)-1H-1,2,4-triazol-3-amine]
100 to 1000 nM	CNC(=O)c1ccc(Cc2cnc(OC(F)F)c(-c3cccc(Cl)c3)c2)cn1 [Example 244, 5-{[5-(3-Chlorophenyl)-6-(difluoromethoxy)pyridin-3-yl]methyl}-N-methylpyridine-2-carboxamide]
100 to 1000 nM	COc1ncc(Cn2cc(Cl)cn2)cc1-c1cccc(Cl)c1 [Example 178, 5-[(4-Chloro-1H-pyrazol-1-yl)methyl]-3-(3-chlorophenyl)-2-methoxypyridine]
< 100 nM	CCOc1ncc(Cn2cnc(CO)n2)cc1-c1cccc(Cl)c1 [Example 203, (1-((5-(3-Chlorophenyl)-6-ethoxypyridin-3-yl)methyl)-1H-1,2,4-triazol-3-yl)methanol]

EC50	SMILES
100 to 1000 nM	COc1ncc(Cc2ccc(CN)cc2)cc1-c1cccc(Cl)c1 [Example 59, (4-{[5-(3-Chlorophenyl)-6-methoxypyridin-3-yl]methyl}phenyl)methanamine]
100 to 1000 nM	NC(=O)C1(c2ccc(Cc3cnc(OC(F)F)c(-c4cccc(Cl)c4)c3)cc2)CC1 [Example 245, 1-(4-{[5-(3-Chlorophenyl)-6-(difluoromethoxy)pyridin-3-yl]methyl}phenyl)cyclopropane-1-carboxamide]
< 100 nM	CCOc1ncc(Cn2ncnc2C(F)(F)F)cc1-c1cccc(Cl)c1 [Example 153, 3-(3-Chlorophenyl)-2-ethoxy-5-{[5-(trifluoromethyl)-1H-1,2,4-triazol-1-yl]methyl}pyridine]
100 to 1000 nM	COc1ncc(Cn2cc(CO)nn2)nc1-c1cccc(OC(F)F)c1 [Example 267, [1-({6-[3-(Difluoromethoxy)phenyl]-5-methoxypyrazin-2-yl}methyl)-1H-1,2,3-triazol-4-yl]methanol]
< 100 nM	Fc1cccc(-c2cc(Cn3cncn3)cnc2OC(F)F)c1 [Example 174, 2-(Difluoromethoxy)-3-(3-fluorophenyl)-5-(1H-1,2,4-triazol-1-ylmethyl)pyridine]
< 100 nM	CCOc1ncc(Cn2ccc(C(N)=O)n2)cc1-c1cccc(Cl)c1 [Example 168, 1-{[5-(3-Chlorophenyl)-6-ethoxypyridin-3-yl]methyl}-1H-pyrazole-3-carboxamide]
100 to 1000 nM	FC(F)Oc1ncc(Cc2ccccn2)cc1-c1cccc(Cl)c1 [Example 109, 3-(3-Chlorophenyl)-2-(difluoromethoxy)-5-(pyridin-2-ylmethyl)pyridine]
1000 to 10000 nM	COc1ncc(Cn2cnc(C(N)=O)n2)cc1-c1cccc(Cl)c1 [Example 241, 1-{[5-(3-Chlorophenyl)-6-methoxypyridin-3-yl]methyl}-1H-1,2,4-triazole-3-carboxamide]
100 to 1000 nM	CCOc1ncc(Cn2ncnc2C(F)(F)F)cc1-c1cccc(OC(F)F)c1 [Example 164, 3-[3-(Difluoromethoxy)phenyl]-2-ethoxy-5-{[5-(trifluoromethyl)-1H-1,2,4-triazol-1-yl]methyl}pyridine]
100 to 1000 nM	CNc1ncc(Cc2cnc(OC)c(-c3cccc(Cl)c3)c2)cn1 [Example 81, 5-{[5-(3-Chlorophenyl)-6-methoxypyridin-3-yl]methyl}-N-methylpyrimidin-2-amine]
100 to 1000 nM	CCOc1ncc(Cn2cnc(C(=O)OC)n2)nc1-c1cccc(OC(F)F)c1 [Example 191, Methyl 1-((6-(3-(difluoromethoxy)phenyl)-5-ethoxypyrazin-2-yl)methyl)-1H-1,2,4-triazole-3-carboxylate]
< 100 nM	Cc1nc(C)c(Cc2cnc(OC(F)F)c(-c3cccc(Cl)c3)c2)s1 [Example 69, 3-(3-Chlorophenyl)-2-(difluoromethoxy)-5-[(dimethyl-1,3-thiazol-5-yl)methyl]pyridine]
1000 to 10000 nM	COc1ncc(Cn2ncnc2CO)nc1-c1cccc(Cl)c1 [Example 210, (1-{[6-(3-Chlorophenyl)-5-methoxypyrazin-2-yl]methyl}-1H-1,2,4-triazol-5-yl)methanol]
1000 to 10000 nM	COc1ncc(Cn2cnc(CF)n2)nc1-c1cccc(Cl)c1 [Example 258, 3-(3-Chlorophenyl)-5-{[3-(fluoromethyl)-1H-1,2,4-triazol-1-yl]methyl}-2-methoxypyrazine]
< 100 nM	Nc1ccc(Cc2cnc(OC(F)F)c(-c3cccc(Cl)c3)c2)cn1 [Example 33, 5-{[5-(3-Chlorophenyl)-6-(difluoromethoxy)pyridin-3-yl]methyl}pyridin-2-amine]
1000 to 10000 nM	CC(C)Oc1ccc(Cc2cnc(OC(F)F)c(-c3cccc(Cl)c3)c2)cn1 [Example 50, 3-(3-Chlorophenyl)-2-(difluoromethoxy)-5-{[6-(propan-2-yloxy)pyridin-3-yl]methyl}pyridine]
100 to 1000 nM	COc1ncc(Cc2cnc(C(N)=O)nc2)cc1-c1cccc(F)c1 [Example 118, 5-{[5-(3-Fluorophenyl)-6-methoxypyridin-3-yl]methyl}pyrimidine-2-carboxamide]
100 to 1000 nM	COc1cccc(-c2cc(Cc3cnc(C(N)=O)nc3)cnc2OC(F)F)c1 [Example 115, 5-{[6-(Difluoromethoxy)-5-(3-methoxyphenyl)pyridin-3-yl]methyl}pyrimidine-2-carboxamide]
100 to 1000 nM	COc1ncc(Cc2ccc(C#N)cc2)nc1-c1cccc(Cl)c1 [Example 86, 4-{[6-(3-Chlorophenyl)-5-methoxypyrazin-2-yl]methyl}benzonitrile]
1000 to 10000 nM	COc1ncc(Cn2cnnc2C)cc1-c1cccc(Cl)c1 [Example 138, 3-(3-Chlorophenyl)-2-methoxy-5-[(3-methyl-4H-1,2,4-triazol-4-yl)methyl]pyridine]
1000 to 10000 nM	COC(=O)c1ncn(Cc2cnc(OC)c(-c3cccc(Cl)c3)n2)n1 [Example 127, Methyl 1-{[6-(3-chlorophenyl)-5-methoxypyrazin-2-yl]methyl}-1H-1,2,4-triazole-3-carboxylate]
< 100 nM	COc1ncc(Cn2ccc(N)n2)cc1-c1cccc(OC(F)F)c1 [Example 232, 1-({5-[3-(Difluoromethoxy)phenyl]-6-methoxypyridin-3-yl}methyl)-1H-pyrazol-3-amine]
